The values that follow come from ChEMBL document CHEMBL1156087, “Antioxidant reactivity toward nitroxide probes anchored into human serum albumin. A new model for studying antioxidant repairing capacity of protein radicals” (Bioorg Med Chem Lett, 2009).

What all share (settings): isolated protein
The target of data set [1] is T1, Albumin (Homo sapiens, UniProt P02768). As to the kind of experiment: Binding affinity to 45 uM human serum albumin assessed as fluorescence distribution at 2.5 uM. In kind it is ADME.
T1 sequence (P02768 whole entry): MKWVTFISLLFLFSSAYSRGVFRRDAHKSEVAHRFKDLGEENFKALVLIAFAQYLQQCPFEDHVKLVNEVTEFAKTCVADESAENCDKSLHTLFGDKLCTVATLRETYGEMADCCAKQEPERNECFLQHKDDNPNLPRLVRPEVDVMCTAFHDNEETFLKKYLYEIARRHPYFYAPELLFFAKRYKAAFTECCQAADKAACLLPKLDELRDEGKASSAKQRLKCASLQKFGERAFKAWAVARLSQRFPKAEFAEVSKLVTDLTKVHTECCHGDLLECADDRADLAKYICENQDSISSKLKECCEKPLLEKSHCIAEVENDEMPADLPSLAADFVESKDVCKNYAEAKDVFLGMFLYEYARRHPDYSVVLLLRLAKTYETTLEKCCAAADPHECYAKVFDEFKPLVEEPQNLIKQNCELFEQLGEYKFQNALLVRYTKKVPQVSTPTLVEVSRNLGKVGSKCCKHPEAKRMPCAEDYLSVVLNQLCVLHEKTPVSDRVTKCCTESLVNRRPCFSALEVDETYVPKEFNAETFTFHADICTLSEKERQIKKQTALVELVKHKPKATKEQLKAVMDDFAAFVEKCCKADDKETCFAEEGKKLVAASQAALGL
For data set [2], the target named is T1, Albumin. As to the kind of experiment: Binding affinity to human serum albumin by tryptophan fluorescence quenching method. In kind it is ADME.
Data set [3] has as its target T1, Albumin. As to the kind of experiment: Binding affinity to human serum albumin intensity at 5 uM by fluorescence based drug displacement assay in presence of dansyl sarcosine.
Data set [4] addresses T1, Albumin. As to the kind of experiment: Binding affinity to 130 uM human serum albumin assessed as fluorescence distribution at 2.5 uM. In kind it is ADME.
The target in data set [5] is T1, Albumin. As to the kind of experiment: Binding affinity to 15 uM human serum albumin assessed as fluorescence distribution at 2.5 uM. In kind it is ADME.
Data set [6] addresses T1, Albumin. As to the kind of experiment: Binding affinity to human serum albumin by Benesi-Hildebrand method. In kind it is ADME.
Data set [7] has as its target T1, Albumin. As to the kind of experiment: Binding affinity to human serum albumin intensity at 5 uM by fluorescence based drug displacement assay in presence of dansyl amide.

Consider `CC1(C)CC(OC(=O)c2cc3cc4c5c(c3oc2=O)CCCN5CCC4)CC(C)(C)N1O`, for which the Activity in data set [1] is recorded as 28.1%; in data set [3], “Not Active”; in data set [4] it was 44.6%; in data set [5] it was 2.9%; in data set [7] it was “Active”. In addition, the Ka is 5 ×10⁴ /M in data set [2] and 4.8 ×10⁴ /M in data set [6].

For the compound `Cc1nc2ccccc2c(C(=O)OC2CC(C)(C)N(O)C(C)(C)C2)c1O`, the Ka in data set [2] amounted to 9 ×10⁴ /M.
